Test results as given in ChEMBL document CHEMBL3120134, “A review of non-nucleoside anti-hepatitis B virus agents” (Eur J Med Chem, 2014).
Converted amounts (≈) assume the structure as drawn.

Columns and labels:
Hepatitis B virus [1] = experiment: Antiviral activity against Hepatitis B virus assessed as inhibition of Hepatitis B virus DNA replication; assay type: functional, organism-based
Hepatitis B virus [2] = experiment: Antiviral activity against Hepatitis B virus infected in human HepG2.2.15 cells assessed as decrease in HBV DNA production; assay type: functional, organism-based; conditions: HepG2 2.2.15
Hepatitis B virus [3] = experiment: Antiviral activity against Hepatitis B virus infected in human HepG2.2.15 cells assessed as decrease in HBV surface antigen secretion after 21 days; assay type: functional, organism-based; conditions: HepG2 2.2.15, 504 h
Hepatitis B virus [4] = experiment: Antiviral activity against Hepatitis B virus; assay type: functional, organism-based
Hepatitis B virus [5] = experiment: Antiviral activity against Hepatitis B virus infected in human HepG2.2.15 cells assessed as decrease in HBV surface antigen secretion; assay type: functional, organism-based, HepG2 2.2.15; conditions: for IC50: Hepatitis B virus, HepG2 2.2.15
[6] = Selectivity index, ratio of cytotoxicity towards human HepG2.2.15 cells to IC50 for HBV DNA production; assay type: toxicity, cell-based; conditions: read-out: Selectivity Index
Hepatitis B virus [7] = experiment: Antiviral activity against Hepatitis B virus infected in human HepG2.2.15 cells assessed as decrease in HBV e antigen secretion; assay type: functional, organism-based, HepG2 2.2.15
[8] = Selectivity index, ratio of cytotoxicity towards human HepG2.2.15 cells to IC50 for HBV e antigen secretion; assay type: toxicity, cell-based; conditions: read-out: Selectivity Index
Hepatitis B virus [9] = experiment: Antiviral activity against Hepatitis B virus infected in human Huh7 cells assessed as inhibition of HBV particles production; assay type: functional, organism-based; conditions: Huh-7
Hepatitis B virus [10] = experiment: Antiviral activity against Hepatitis B virus infected in human HepG2.2.15 cells assessed as decrease in HBV surface antigen secretion by ELISA; assay type: functional, organism-based; conditions: HepG2 2.2.15
Hepatitis B virus [11] = experiment: Antiviral activity against Hepatitis B virus infected in human HepG2.2.15 cells assessed as decrease in HBV e antigen secretion by ELISA; assay type: functional, organism-based; conditions: HepG2 2.2.15
Hepatitis B virus [12] = experiment: Antiviral activity against Hepatitis B virus infected in human HepG2.2.15 cells assessed as decrease in HBV DNA production by quantitative RT-PCR analysis; assay type: functional, organism-based; conditions: HepG2 2.2.15

CCOC(=O)c1nc(-c2ncc(C)s2)sc1CC(C)C
IC50 (Hepatitis B virus [1]): 0.14 µM

COc1cc2cc3c(nc2c(CN2CCCCC2)c1O)-c1ccc(F)cc1SC3
IC50 (Hepatitis B virus [2]): < 10 µM

C[C@@H]1CC[C@H]2[C@@H](C)C(=O)O[C@@H]3O[C@@]4(C)CC[C@@H]1[C@]32OO4 [ARTEMISININ]
IC50 (Hepatitis B virus [3]): 55 µM

O=C1NCc2c1cc1ccc3c(c1c2-c1ccc2c(c1)OCO2)OCO3
EC50 (Hepatitis B virus [4]): 0.08 µM

C=C(C)[C@H](O)[C@@H](O)C[C@@H](C)C1=C2C[C@H](O)[C@H]3[C@@]4(C)CCC(=O)C(C)(C)[C@@H]4CC[C@]3(C)[C@@]2(C)CC1
IC50 (Hepatitis B virus [5]): 0.6 µM

CC(C)Cc1sc(-c2nccs2)nc1C(=O)O
IC50 (Hepatitis B virus [1]): 60 µM

C[C@@H]1C[C@@H]([C@@H](O)C(C)(C)O)O[C@H]2C[C@@]3(C)C(=C12)C[C@H](O)[C@H]1[C@@]2(C)CCC(=O)C(C)(C)[C@@H]2CC[C@@]13C
IC50 (Hepatitis B virus [5]): 0.6 µM

COC(=O)c1nc(-c2nccs2)sc1CC(C)C
IC50 (Hepatitis B virus [1]): 2.4 µM

O=C1OCc2c1cc1ccc3c(c1c2-c1ccc2c(c1)OCO2)OCO3 [HELIOXANTHIN]
EC50 (Hepatitis B virus [4]): 1 µM

Cc1ccc(O)c(C(=O)Nc2ncc(Cl)s2)c1
EC50 (Hepatitis B virus [4]): 0.12 µM

COC(=O)c1nc(-c2csc([C@@H](NC(=O)c3cccs3)C(C)C)n2)oc1C
IC50 (Hepatitis B virus [1]): 76.4 µM

CCOC(=O)c1c(C[S+]([O-])c2cccc(F)c2)n(C)c2cc(Br)c(O)c(CN3CCOCC3)c12 (stereo not given)
IC50 (Hepatitis B virus [4]): < 60 µg/mL

COc1cc2cc3c(nc2c(Cn2ccnc2C)c1O)-c1ccc(F)cc1SC3
IC50 (Hepatitis B virus [2]): 1.7 µM | selectivity ratio [6]: 60.3

CCN(CC)Cc1c(O)c(OC)cc2nc3c(cc12)CSc1cc(F)ccc1-3
IC50 (Hepatitis B virus [2]): < 10 µM

COC(=O)C1=C(C)NC(c2nccs2)=N[C@H]1c1ccc(F)cc1Cl
IC50 (Hepatitis B virus [1]): 0.03 µM

C[C@H](C[C@H](O)[C@@H](O)C(C)(C)O)[C@]12CC[C@@]3(C)[C@@]1(C[C@H](O)[C@H]1[C@@]4(C)CCC(=O)C(C)(C)[C@@H]4CC[C@@]13C)O2
IC50 (Hepatitis B virus [5]): 0.6 µM

COC(=O)C1=C(C)NC(c2ncccc2F)=N[C@@H]1c1ccc(F)cc1Cl
IC50 (Hepatitis B virus [1]): 0.15 µM

CCOC(=O)c1c(CS(=O)(=O)c2cccc(OC)c2)n(C)c2ccc(O)c(CN3CCCC3)c12
IC50 (Hepatitis B virus [4]): < 60 µg/mL

CC(=O)O[C@H]([C@@H]1C[C@@H](C)C2=C3C[C@H](O)[C@H]4[C@@]5(C)CCC(=O)C(C)(C)[C@@H]5CC[C@]4(C)[C@@]3(C)C[C@@H]2O1)C(C)(C)O
IC50 (Hepatitis B virus [5]): 0.6 µM | IC50 (Hepatitis B virus [7]; Hepatitis B virus, HepG2 2.2.15): 5.1 µM | selectivity ratio [8]: 18.5

CCOC(=O)c1c(CS(=O)(=O)c2ccc(C)cc2)n(C2CC2)c2ccc(O)c(Cn3ccnc3)c12
IC50 (Hepatitis B virus [4]): < 60 µg/mL

Cc1ccc(-c2nnc3sc(CN)cn23)cc1
IC50 (Hepatitis B virus [4]): 35 µM

COc1cc2c(cc1OC)-c1c(C)c3ccc4c(c3c[n+]1CC2)OCO4.[OH-]
inhibition (INH) (Hepatitis B virus [5]): 50% | inhibition (INH) (Hepatitis B virus [7]): 40%

Cc1cc(C)n2nc(S)nc2c1
IC50 (Hepatitis B virus [9]): 0.12 µM

CCOC(=O)c1cc2cc(OC)c(O)c(Cn3ccnc3)c2nc1C[S+]([O-])c1ccc(F)cc1 (stereo not given)
IC50 (Hepatitis B virus [2]): 3.5 µM | selectivity ratio [6]: 37.9

O=Cc1ccc(O)c(O)c1 [PROTOCATECHUALDEHYDE]
EC50 (Hepatitis B virus [10]): 3.94 µg/mL (≈ 28.5 µM) | EC50 (Hepatitis B virus [11]): 2.46 µg/mL (≈ 17.8 µM) | IC50 (Hepatitis B virus [12]): 4.17 µg/mL (≈ 30.2 µM)

COc1cc2c(cc1O)CC[n+]1cc3c4c(ccc3c(C)c1-2)OCO4.[OH-]
inhibition (INH) (Hepatitis B virus [5]): 50% | inhibition (INH) (Hepatitis B virus [7]): 40%

COc1ccc2c(c1)-c1nc3c(CN4CCCCC4)c(O)c(OC)cc3cc1CS2
IC50 (Hepatitis B virus [2]): < 10 µM
